Data from patent US20120190752A1, “EXO-S-MECAMYLAMINE METHOD, USE, AND COMPOUND FOR TREATMENT” (Targacept Inc., priority 2009, published 2012).

Test system: subjects with major depressive disorder (MDD) who were inadequate responders to citalopram
Test: SGI-Cog (Subject Global Impression-Cognition) with Attention, Memory, Speed subscales, Phase 2b add-on trial
Format: in vivo, human
Design: SGI-Cognition Adj. Mean / SGI-Attention Adj. Mean / SGI-Memory Adj. Mean / SGI-Speed Adj. Mean / SGI-Cog TOTAL Adjusted Mean / SGI-Cog MEMORY Adjusted Mean / SGI-Cog ATTENTION Adjusted Mean / SGI-Cog SPEED OF THINKING Adjusted Mean: scale not given here
Settings: for SGI-Cog ATTENTION Adjusted Mean / SGI-Cog ATTENTION Mean Difference between TC-5214 and Placebo / SGI-Cog MEMORY Adjusted Mean / SGI-Cog MEMORY Mean Difference between TC-5214 and Placebo / SGI-Cog SPEED OF THINKING Adjusted Mean / SGI-Cog SPEED OF THINKING Mean Difference between TC-5214 and Placebo / SGI-Cog TOTAL Adjusted Mean / SGI-Cog TOTAL Mean Difference between TC-5214 and Placebo: Double Blind Week 16; for SGI-Attention Adj. Mean / SGI-Memory Adj. Mean / SGI-Speed Adj. Mean / SGI-Cognition Adj. Mean / SGI-Attention Difference vs placebo / SGI-Cognition Difference vs placebo / SGI-Memory Difference vs placebo / SGI-Speed Difference vs placebo: ITT; for SGI-Attention Adj. Mean / SGI-Memory Adj. Mean / SGI-Speed Adj. Mean / SGI-Cognition Adj. Mean: assessed at endpoint (Week 16), patient rated change from baseline; for SGI-Cognition Adj. Mean: sum of 3 items; for SGI-Attention Difference vs placebo / SGI-Cognition Difference vs placebo / SGI-Memory Difference vs placebo / SGI-Speed Difference vs placebo: endpoint (Week 16)
Procedure: In more detail, a multi-center double-blind, randomized, placebo-controlled, parallel group, flexible dose titration study of TC-5214 as adjunctive therapy in subjects with major depressive disorder (MDD) who were inadequate responders to citalopram was conducted in centers in the US and India. The study consisted of a screening period, baseline/washout period, open-label phase, double-blind phase, and a follow-up visit. Subject participation in the study could continue for up to 16 weeks of treatment. Following a washout period of up to 28 days for other antidepressants, subjects with MDD and a MADRS total score >/=28 and a Clinical Global Impression-Severity (CGI-S) score >/=4 were enrolled on Day 1 into an open-label citalopram-only phase of the study. This phase lasted 8 weeks, with citalopram (CIT) dose increased from a once-daily dose of 20 mg (Day 1 through Week 4) to 40 mg (Week 4 through Week 8). A total of 579 subjects entered the open-label citalopram phase. At Week 8, subjects who tolerated 40 mg CIT, but whose MADRS score was reduced <50% from baseline and no lower than 17, and CGI-S≧4, were considered inadequate responders. These subjects (n=270) were randomized in a double-blind fashion to receive either placebo or TC-5214-23 as add-on therapy to continued CIT. The double-blind phase of the study also lasted 8 weeks (Week 8 to Week 16). Study drug, TC-5214-23 or placebo, was started at 2 mg daily (1 mg twice per day [BID] dosing), added on to continuing CIT (40 mg PO qd). After 2 weeks of treatment, the dose of TC-5214 could be increased to 4 mg (2 mg BID) or continued unchanged, with up-titration based upon good tolerability and inadequate therapeutic response. After a further 2 weeks, the dose of TC-5214 could be increased again to 8 mg (4 mg BID) if judged appropriate by the investigator, based upon good tolerability and inadequate therapeutic response. At any time during the double-blind phase of the study, placebo or TC-5214-23 could be reduced to the previous dose level following the emergence of unacceptable adverse events (AEs). […] At this follow-up, any signs or symptoms of relapse were evaluated. If a subject was prematurely discontinued from the study between Week 8 and Week 16 for any reason, the investigator was to make every effort to perform all evaluations as per protocol, assuming the subject had reached the end of the double-blind add-on treatment phase. These evaluations were to be made as soon as possible and within 2 weeks of discontinuation. […] There was no meaningful difference in results as a function of age, gender, site, or smoking status. [table] With regard to efficacy endpoints, the following tables present efficacy used in the ITT (Intent-to-Treat) and PP (Per Protocol) populations unless otherwise specific. The primary inference was based upon Week 16 visit using the ITT population. Change from baseline was obtained by subtracting the baseline values from the individual on-treatment values. Change from Week 16 was obtained by subtracting the Week 16 values from the individual follow-up visit (Week 18/19) values. If either the baseline or Week 16 or on-treatment or follow-up value was missing, the change from baseline or Week 16 value was also set to missing. To account for missing data, the last observation carry forward (LOCF) method was used for the ITT and PP populations. Thus, the last available on-therapy observation for a subject, including the observation at premature discontinuation, was used to estimate subsequent missing data points. For efficacy, baseline data were collected at Week 8 in the double-blind augmentation phase electronic case report form pages. With regard to SGI-Cog, the endpoint was the Week 16 results for the SGI-Cog. The Week 16 SGI-Cog composite score and each scale were analyzed at Week 16 using ANOVA. […]

`CNC1(C)C2CCC(C2)C1(C)C` (stereo in doubt) [TC-5214, (S)—N,2,3,3-tetramethylnorbornan-2-amine] was tested, and the “SGI-Cog ATTENTION Adjusted Mean” value (ITT Population) was 2.13, the “SGI-Cog ATTENTION Mean Difference between TC-5214 and Placebo” value (ITT Population) was 0.72 and the “SGI-Cog MEMORY Adjusted Mean” value (ITT Population) was 2.23. The “SGI-Cog MEMORY Mean Difference between TC-5214 and Placebo” value (ITT Population) was 0.67, the “SGI-Cog SPEED OF THINKING Adjusted Mean” value (ITT Population) was 2.16 and the “SGI-Cog SPEED OF THINKING Mean Difference between TC-5214 and Placebo” value (ITT Population) was 0.76. For the same compound, the “SGI-Cog TOTAL Adjusted Mean” value (ITT Population) was 6.52, the “SGI-Cog TOTAL Mean Difference between TC-5214 and Placebo” value (ITT Population) was 2.15 and the “SGI-Attention Adj. Mean” value was 2.13 (0.09). For the same compound, the “SGI-Memory Adj. Mean” value was 2.23 (0.09), the “SGI-Speed Adj. Mean” value was 2.16 (0.09) and the “SGI-Attention Adj. Mean” value (listed as TC-5214 + CIT) was 2.13. For the same compound, the “SGI-Memory Adj. Mean” value (listed as TC-5214 + CIT) was 2.23, the “SGI-Speed Adj. Mean” value (listed as TC-5214 + CIT) was 2.16 and the “SGI-Cognition Adj. Mean” value was 6.52 (0.27). The “SGI-Cognition Adj. Mean” value (listed as TC-5214 + CIT) was 6.52, the “SGI-Attention Difference vs placebo” value was −0.72 (−0.96, −0.47) and the “SGI-Cognition Difference vs placebo” value was −2.15 (−2.89, −1.41). The “SGI-Memory Difference vs placebo” value was −0.67 (−0.93, −0.42), the “SGI-Speed Difference vs placebo” value was −0.76 (−1.02, −0.50) and the “SGI-Attention Difference vs placebo” value (listed as TC-5214 + CIT) was −0.72. For the same compound, the “SGI-Cognition Difference vs placebo” value (listed as TC-5214 + CIT) was −2.15, the “SGI-Memory Difference vs placebo” value (listed as TC-5214 + CIT) was −0.67 and the “SGI-Speed Difference vs placebo” value (listed as TC-5214 + CIT) was −0.76. The “SGI-Cog ATTENTION Adjusted Mean” value (PP Population) was 2.03, the “SGI-Cog ATTENTION Mean Difference between TC-5214 and Placebo” value (PP Population) was 0.76 and the “SGI-Cog MEMORY Adjusted Mean” value (PP Population) was 2.15. The “SGI-Cog MEMORY Mean Difference between TC-5214 and Placebo” value (PP Population) was 0.68, the “SGI-Cog SPEED OF THINKING Adjusted Mean” value (PP Population) was 2.05 and the “SGI-Cog SPEED OF THINKING Mean Difference between TC-5214 and Placebo” value (PP Population) was 0.81. For the same compound, the “SGI-Cog TOTAL Adjusted Mean” value (PP Population) was 6.23, the “SGI-Cog TOTAL Mean Difference between TC-5214 and Placebo” value (PP Population) was 2.25 and the “Total SGI-Cog scores compared with placebo” value (Week 16, ITT and PP populations, result in words) was “statistically significant lower”.
